Measurements reported in PubChem BioAssay (NCI).
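Interpolation was linear, between the two tested concentrations surrounding the appropriate level; five concentrations were tested over 48 hours in 96-well plates. The concentration for full growth arrest is given as TGI.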

Key:
Test in all cases: NCI-60 cell line screen, 48 h
[1] = system: 786-0 renal
[2] = system: A498 renal
[3] = system: A549 NSCLC
[4] = system: ACHN renal
[5] = system: BT-549 breast
[6] = system: CAKI-1 renal
[7] = system: CCRF-CEM leukemia
[8] = system: COLO 205 colon
[9] = system: DU-145 prostate
[10] = system: EKVX NSCLC
[11] = system: HCC-2998 colon
[12] = system: HCT-116 colon
[13] = system: HCT-15 colon
[14] = system: HL-60(TB) leukemia
[15] = system: HOP-62 NSCLC
[16] = system: HOP-92 NSCLC
[17] = system: HS 578T breast
[18] = system: HT29 colon
[19] = system: IGROV1 ovarian
[20] = system: K-562 leukemia
[21] = system: KM12 colon
[22] = system: LOX IMVI melanoma
[23] = system: M14 melanoma
[24] = system: MALME-3M melanoma
[25] = system: MCF7 breast
[26] = system: MDA-MB-231 breast
[27] = system: MDA-MB-435
[28] = system: MDA-N
[29] = system: MOLT-4 leukemia
[30] = system: NCI-H23 lung
[31] = system: NCI-H460 lung
[32] = system: NCI-H522 lung
[33] = system: NCI/ADR-RES ovarian
[34] = system: OVCAR-3 ovarian
[35] = system: OVCAR-4 ovarian
[36] = system: OVCAR-5 ovarian
[37] = system: OVCAR-8 ovarian
[38] = system: PC-3 prostate
[39] = system: RPMI-8226 leukemia
[40] = system: RXF 393 renal
[41] = system: SF-268 CNS
[42] = system: SF-295 CNS
[43] = system: SF-539 CNS
[44] = system: SK-MEL-2 melanoma
[45] = system: SK-MEL-28 melanoma
[46] = system: SK-MEL-5 melanoma
[47] = system: SK-OV-3 ovarian
[48] = system: SN12C renal
[49] = system: SNB-19 CNS
[50] = system: SR leukemia
[51] = system: SW-620 colon
[52] = system: T-47D breast
[53] = system: TK-10 renal
[54] = system: U251 CNS
[55] = system: UACC-257 melanoma
[56] = system: UACC-62 melanoma
[57] = system: UO-31 renal
[58] = system: NCI-H226 lung
[59] = system: SNB-75 CNS

O=C1O/C(=C\c2ccc(O)c(Br)c2)C(c2ccc(O)c(Cl)c2)=C1Br
TGI [1]: 40.2 µM
TGI [2]: 37.3 µM
TGI [3]: > 100 µM
TGI [4]: 33.2 µM
TGI [5]: 63.1 µM
TGI [6]: 75.2 µM
TGI [7]: 51.1 µM
TGI [8]: 32 µM
TGI [9]: 43 µM
TGI [10]: 49.3 µM
TGI [11]: 16.7 µM
TGI [12]: 26.5 µM
TGI [13]: 25.3 µM
TGI [14]: > 100 µM
TGI [15]: 40.9 µM
TGI [16]: 35.7 µM
TGI [17]: 70.9 µM
TGI [18]: 25.5 µM
TGI [19]: 47.2 µM
TGI [20]: 58.5 µM
TGI [21]: 31.2 µM
TGI [22]: 71.9 µM
TGI [23]: 36.5 µM
TGI [24]: 37.3 µM
TGI [25]: 34.6 µM
TGI [26]: > 100 µM
TGI [27]: 46.5 µM
TGI [28]: 64.9 µM
TGI [29]: > 100 µM
TGI [30]: 54.1 µM
TGI [31]: 48.4 µM
TGI [32]: 28.6 µM
TGI [33]: 75.7 µM
TGI [34]: 33.7 µM
TGI [35]: 25.8 µM
TGI [36]: 33.4 µM
TGI [37]: 90 µM
TGI [38]: 32.7 µM
TGI [39]: 38.6 µM
TGI [40]: 40.9 µM
TGI [41]: 33.7 µM
TGI [42]: 30.4 µM
TGI [43]: 44 µM
TGI [44]: 39.2 µM
TGI [45]: 32 µM
TGI [46]: 29.8 µM
TGI [47]: 40.9 µM
TGI [48]: 86.4 µM
TGI [49]: 66.5 µM
TGI [50]: 28.1 µM
TGI [51]: 34.1 µM
TGI [52]: 47 µM
TGI [53]: 48.3 µM
TGI [54]: 29.8 µM
TGI [55]: 33.3 µM
TGI [56]: 31.6 µM
TGI [57]: 77.4 µM

O=C(O)CSc1ccc(N=C=S)cc1
TGI [1]: > 100 µM
TGI [2]: > 100 µM
TGI [3]: > 100 µM
TGI [4]: > 100 µM
TGI [5]: > 100 µM
TGI [6]: > 100 µM
TGI [7]: 51.5 µM
TGI [8]: > 100 µM
TGI [9]: > 100 µM
TGI [10]: > 100 µM
TGI [11]: > 100 µM
TGI [12]: > 100 µM
TGI [13]: > 100 µM
TGI [15]: > 100 µM
TGI [16]: > 100 µM
TGI [17]: > 100 µM
TGI [18]: > 100 µM
TGI [19]: > 100 µM
TGI [21]: > 100 µM
TGI [22]: > 100 µM
TGI [23]: > 100 µM
TGI [24]: 84 µM
TGI [25]: > 100 µM
TGI [26]: > 100 µM
TGI [27]: > 100 µM
TGI [28]: > 100 µM
TGI [29]: > 100 µM
TGI [58]: > 100 µM
TGI [30]: > 100 µM
TGI [31]: > 100 µM
TGI [32]: > 100 µM
TGI [33]: > 100 µM
TGI [34]: > 100 µM
TGI [35]: > 100 µM
TGI [36]: > 100 µM
TGI [37]: > 100 µM
TGI [38]: > 100 µM
TGI [39]: 57.1 µM
TGI [40]: > 100 µM
TGI [41]: > 100 µM
TGI [42]: > 100 µM
TGI [43]: 77.1 µM
TGI [44]: > 100 µM
TGI [45]: > 100 µM
TGI [46]: > 100 µM
TGI [47]: > 100 µM
TGI [48]: > 100 µM
TGI [49]: > 100 µM
TGI [59]: > 100 µM
TGI [50]: 47.5 µM
TGI [51]: > 100 µM
TGI [52]: > 100 µM
TGI [53]: > 100 µM
TGI [54]: > 100 µM
TGI [55]: > 100 µM
TGI [56]: > 100 µM
TGI [57]: > 100 µM

COc1cc([C@@H]2C3C(=O)c4ccccc4C3[C@@H](c3cc(OC)c(OC)c(OC)c3)C23Cc2ccccc2C3=O)cc(OC)c1OC (stereo partly specified)
TGI [1]: > 100 µM
TGI [2]: > 100 µM
TGI [3]: > 100 µM
TGI [4]: > 100 µM
TGI [5]: > 100 µM
TGI [6]: 7.85 µM
TGI [7]: > 100 µM
TGI [8]: > 100 µM
TGI [9]: > 100 µM
TGI [10]: > 100 µM
TGI [11]: > 100 µM
TGI [12]: > 100 µM
TGI [13]: > 100 µM
TGI [14]: > 100 µM
TGI [15]: > 100 µM
TGI [16]: > 100 µM
TGI [17]: > 100 µM
TGI [18]: > 100 µM
TGI [19]: > 100 µM
TGI [20]: > 100 µM
TGI [21]: > 100 µM
TGI [22]: > 100 µM
TGI [23]: > 100 µM
TGI [24]: > 100 µM
TGI [25]: > 100 µM
TGI [26]: > 100 µM
TGI [27]: > 100 µM
TGI [28]: > 100 µM
TGI [29]: > 100 µM
TGI [58]: > 100 µM
TGI [30]: > 100 µM
TGI [31]: > 100 µM
TGI [32]: > 100 µM
TGI [33]: > 100 µM
TGI [34]: > 100 µM
TGI [35]: > 100 µM
TGI [36]: > 100 µM
TGI [37]: > 100 µM
TGI [38]: > 100 µM
TGI [39]: > 100 µM
TGI [40]: > 100 µM
TGI [41]: > 100 µM
TGI [42]: > 100 µM
TGI [43]: > 100 µM
TGI [45]: > 100 µM
TGI [46]: > 100 µM
TGI [47]: > 100 µM
TGI [48]: > 100 µM
TGI [49]: > 100 µM
TGI [59]: > 100 µM
TGI [50]: > 100 µM
TGI [51]: > 100 µM
TGI [52]: > 100 µM
TGI [53]: > 100 µM
TGI [54]: > 100 µM
TGI [55]: > 100 µM
TGI [57]: > 100 µM
